# Test results: US20230000896A1, “ALDH3A2 INHIBITION AND FERROPTOSIS INDUCTION FOR CANCER THERAPY” (President and Fellows of Harvard College, priority 2019, published 2023)
# Residues, ends and D or L forms follow the SMILES beside them. *: point of attachment. Cbz = O=C(OCc1ccccc1)*; CH2F = FC*
# Legend:
# [1] = system: leukemic stem and progenitor cells (LSPCs); experiment: cellular ROS by flow cytometry in Aldh3a2-control and mutant LSPCs; assay type: cell-based, mouse; details: FIG. 5C
# Source text: (§1) Aldehyde dehydrogenases metabolize aldehydes to mitigate oxidative stress and prevent lipid peroxidation in the cell. […] Next, oxidative damage in AML cells lacking Aldh3a2 was examined. […] To further assess deficits in detoxification capacity, the effects of 4-hydroxynonenal (4-HNE) was studied next, a commonly investigated fatty aldehyde and a byproduct of arachidonic acid catabolism, on cellular ROS, lipid peroxidation and proliferation in Aldh3a2-deficient leukemia stem and progenitor cells. […] Lastly, normal granulocyte monocyte precursors (N-GMPs) were investigated. […] Spleens from Aldh3a2-Ctrl and Aldh3a2-mut mice were utilized to obtain single cell suspensions and were incubated with C11 Bodipy lipid peroxidation sensor (ThermoFisher Cat #C10445) or CellRox reagent (ThermoFisher Cat #C10491) for 30 minutes at […]. Cells were stained with biotinylated antibodies against lineage markers, SA-Pacific Orange conjugate (ThermoFisher) and APC Rat Anti-Mouse CD117 (BD Biosciences) and read on the LSRII flow cytometer. Lipid peroxidation and cellular ROS was assessed in Lineage-, c-Kit^+ and Lineage^−, c-Kit^hi populations. RSL3 (at 5 uM), 4-HNE (5 uM) and ZVAD (at 10 uM) was added to Lin-Kit- or Lin-Kit+ leukemic cells in RPMI containing 10 ng/ul of murine IL3, IL6 and SCF. […] Number of cells were measured by Celltiter GloR 2.0 assay at days 0, 1 and 3. […]
# [2] = system: leukemic stem and progenitor cells (LSPCs); experiment: lipid peroxidation by flow cytometry in Aldh3a2-control and mutant LSPCs; assay type: cell-based, mouse; details: FIG. 5D
# Source text: as §1
# [3] = system: leukemic stem and progenitor cells (LSPCs); experiment: growth kinetics of Aldh3a2-control and mutant LSPCs treated with 4HNE; assay type: cell-based, mouse; details: 4-HNE 5 uM, FIG. 5E
# Source text: Aldehyde dehydrogenases metabolize aldehydes to mitigate oxidative stress and prevent lipid peroxidation in the cell. […] Next, oxidative damage in AML cells lacking Aldh3a2 was examined. […] To further assess deficits in detoxification capacity, the effects of 4-hydroxynonenal (4-HNE) was studied next, a commonly investigated fatty aldehyde and a byproduct of arachidonic acid catabolism, on cellular ROS, lipid peroxidation and proliferation in Aldh3a2-deficient leukemia stem and progenitor cells. […] Lastly, normal granulocyte monocyte precursors (N-GMPs) were investigated. […] RSL3 (at 5 uM), 4-HNE (5 uM) and ZVAD (at 10 uM) was added to Lin-Kit- or Lin-Kit+ leukemic cells in RPMI containing 10 ng/ul of murine IL3, IL6 and SCF. Ferrostatin (10 uM) was added to bulk leukemic cells in RPMI containing 10 ng/ul of murine IL3, TPO and FLT3L. Number of cells were measured by Celltiter GloR 2.0 assay at days 0, 1 and 3. 10 mM of NAC was added to RPMI with 10 percent FBS and 1 percent P/S for relevant rescue experiments. Drugs were purchased from Sigma.
# [4] = system: Aldh3a2-control and mutant LSPCs; experiment: frequency of live Aldh3a2-control and mutant LSPCs after drug treatment; assay type: cell-based, mouse; details: three days
# Source text: The specific mechanism for the reduced number of leukemic cells upon Aldh3a2 deletion was next investigated.
# Lipid peroxidation has been linked to the induction of ferroptosis, a non-apoptotic, iron-dependent form of cell death. An increase in lysophospholipids, especially those lacking PUFA tails as was observed (FIG. 13E), is a hallmark of ferroptosis. In addition, the ability to rescue cell death by providing exogenous MUFAs, as was found (FIG. 12H), is another feature of ferroptotic cell death. To further confirm these findings cells were treated with ferrostatin, an inhibitor of iron-dependent oxidative damage.
# To further assess the relationship to ferroptosis, a key enzyme protecting cells from ferroptotic cell death, glutathione peroxidase 4 (Gpx4) was genetically and pharmacologically targeted. […] Recent findings have shown that activation of MUFAs by Acs13 can also promote resistance to ferroptosis. Acs13 expression was not different between Aldh3a2 control and mutant leukemic cells (FIG. 13F).
# (§2) RSL3 (at 5 uM), 4-HNE (5 uM) and ZVAD (at 10 uM) was added to Lin-Kit- or Lin-Kit+ leukemic cells in RPMI containing 10 ng/ul of murine IL3, IL6 and SCF. Ferrostatin (10 uM) was added to bulk leukemic cells in RPMI containing 10 ng/ul of murine IL3, TPO and FLT3L. Number of cells were measured by Celltiter GloR 2.0 assay at days 0, 1 and 3. 10 mM of NAC was added to RPMI with 10 percent FBS and 1 percent P/S for relevant rescue experiments. Drugs were purchased from Sigma.
# THP-1 cells = experiment: growth kinetics of ALDH3A2-depleted THP-1 cells treated with NAC; assay type: cell-based, human; details: 10 mM NAC, FIG. 12D
# Method: In cells cultured in [1,2-^13C2]glucose, the oxPPP generates singly ^13C labeled (M1) intermediates, glycolysis generates doubly 13C labeled (M2) intermediates, and the M1/M2 ratio reflects the oxPPP flux relative to glycolysis (FIG. 12E). […] Cells lacking ALDH3A2 thus fail to increase antioxidant defense mechanisms to mitigate the increased oxidative stress and prevent lipid peroxidation.
# as §2
# [5] = system: Aldh3a2-control and mutant leukemic cells; experiment: fatty acid rescue experiments (viability by flow cytometry); assay type: cell-based, mouse; details: FIG. 12H
# Method: By detoxifying fatty aldehydes, Aldh3a2 generates fatty acids that can be used for biosynthetic purposes (FIG. 12A). […] To further investigate the consequences of this depletion of 18-carbon fatty acids in Aldh3a2 knockout cells lipidomics analysis was performed on leukemic cells derived from conditional knockout mice (FIGS. 13A-13E). Several, but not all, phospholipid species containing 18-carbon fatty acid tails were decreased in mutant cells across lipid classes, including phosphatidylcholines, phosphatidylethanolamines, cardiolipins and phosphatidic acids (FIGS. 13A-13D).
# Cell viability was analyzed using Annexin V-APC (BioLegend) and 7-AAD (ThermoFisher Scientific) with Annexin V^−7-AAD^− cells considered as viable cells. Analysis was performed on A BD LSR II flow cytometer.
# Bulk GFP+ cells sorted from wildtype or mutant mice were plated in a 24 well plate at 50,000 cells per well. Oleic acid (Sigma), complexed to fatty acid-free bovine serum albumin, was added at concentrations of 62.5, 125 or 250 μM. Ethanol/albumin was used as control. 72 hours later cell viability was analyzed by flow cytometry.
# Aldh3a2 = experiment: Q-PCR validation of Aldh3a2 knockdown in L-GMPs; assay type: cell-based, mouse; details: FIG. 2B
# Method: (§3) However, its functional role in normal and malignant hematopoiesis is unclear. […] Aldh3a2 knockdown in L-GMPs decreased the number of cells in a methylcellulose assay (FIG. 2C and FIG. 9A) that quantifies growth on a per cell basis.
# RNA was extracted from cells using the RNeasy Micro Kit (Qiagen) and RT-PCR was performed using the SuperScript™ IV One-Step RT-PCR System according to the manufacturer's instructions. Taqman probes were used to perform Q-PCR for murine and human Aldh3a2.
# L-GMPs = experiment: methylcellulose assay of shRNA-infected L-GMPs; assay type: cell-based, mouse; details: compared to control shRNA, FIG. 2C
# Method: as §3
# (§4) Ten thousand N-GMPs or L-GMPs infected with lentiviruses expressing relevant shRNAs were added to 3 cc of methylcellulose (StemCell Technologies) plated per well of a 6 well plate. Number of cells were counted on day 7.
# [6] = system: MLL-AF9 leukemia (L-GMPs); experiment: survival of sublethally irradiated C57BL/6J mice transplanted with shRNA-expressing L-GMPs; assay type: in vivo, mouse; details: ten thousand L-GMPs transplanted, vs control shRNA, FIG. 2D
# Source text: To evaluate Aldh3a2 knockdown in vivo, ten thousand L-GMPs expressing Aldh3a2-sh-1, Aldh3a2-sh-2 or control shRNA were transplanted into sublethally irradiated C57BL/6J recipient mice and followed over time.
# N-GMPs = experiment: methylcellulose assay of shRNA-infected N-GMPs; assay type: cell-based, mouse; details: compared to control shRNA, FIG. 3A
# Source text: Then a constitutive knockout mouse model (KO) was utilized where Aldh3a2 enzyme activity was decreased to less than 50 percent of wild-type (WT) control mice (FIG. 3B). (This model consists of a deletion of exon 4 of the Aldh3a2 gene which completely destroys Aldh3a2 enzyme activity but assays of cell homogenates measure total fatty aldehyde oxidizing activity including aldehyde dehydrogenases other than Aldh3a2).
# as §4
compound,measurement,setting,value
"CCCCCC(O)/C=C/C=O (stereo not shown) [4-HNE, 4-hydroxynonenal]",cellular ROS,[1]; 4-HNE exposure for 24 hours,increased cellular ROS in mutant but not control cells
same,lipid peroxidation,[2]; 4-HNE exposure,increased levels of lipid peroxidation in mutant but not in control cells
same,"sensitivity to 4HNE, mutant versus control",[3],significantly greater in mutant than in control cells
same,cell growth,[3]; control and mutant cells,reduced cell growth
CCOC(=O)c1ccc(NC2CCCCC2)c(N)c1 [Ferrostatin],cell death in Aldh3a2 mutant leukemia cells,"[4]; Ferrostatin 10 uM, FIG. 6H and 14B",completely prevented the cell death
"CC(=O)N[C@@H](CS)C(=O)O [NAC, N-Acetyl-L-Cysteine]",rescue of ALDH3A2 depleted THP-1 cells,THP-1 cells,partial rescue in the population of cells with moderate (sh-A) but not severe (sh-B) ALDH3A2 depletion
COC(=O)c1ccc([C@@H]2c3[nH]c4ccccc4c3C[C@@H](C(=O)OC)N2C(=O)CCl)cc1 [RSL3],sensitivity of Aldh3a2 deficient Lin-cKit+ AML cells,"[4]; RSL3 5 uM, FIG. 6I and 14C",increased sensitivity
CC(NC(=O)C(NC(=O)OCc1ccccc1)C(C)C)C(=O)NC(CC(=O)O)C(=O)CF (stereo not drawn) [Z-VAD] (Cbz-Val-Ala-Asp-CH2F; configuration not given here),rescue of cell death in Aldh3a2 deficient cells,"[4]; ZVAD 10 uM, Lin- cKit+ cells, FIG. 6F",did not rescue the cell death
CCCCCCCC/C=C\CCCCCCCC(=O)O [oleic acid],rescue of the effects of Aldh3a2 depletion,"[5]; exogenous oleic acid (18:1), conditional mutant mice",rescued the effects of Aldh3a2 depletion
same,concentration of maximum rescue of cells from death,"[5]; three days culture, 62.5, 125 or 250 μM tested",125 µM
"Aldh3a2-sh-1: shRNA against mouse Aldh3a2, GCAGGAAATGCTGTGATTATA (SEQ ID NO: 1)",Aldh3a2 expression in L-GMPs,Aldh3a2,decreased Aldh3a2 expression in L-GMPs
same,number of L-GMPs in methylcellulose,L-GMPs,significantly decreases the number of L-GMPs in methylcellulose
same,survival of recipient mice,[6],survive significantly longer than control animals
same,number of N-GMPs in methylcellulose,N-GMPs,no difference in the number of N-GMPs
"Aldh3a2-sh-2: shRNA against mouse Aldh3a2, CCTCTGGCTCTTTATGTATTT (SEQ ID NO: 2)",Aldh3a2 expression in L-GMPs,Aldh3a2,decreased Aldh3a2 expression in L-GMPs
same,number of L-GMPs in methylcellulose,L-GMPs,significantly decreases the number of L-GMPs in methylcellulose
same,survival of recipient mice,[6],survive significantly longer than control animals
Vitamin E,total ROS,[1]; 4HNE plus vitamin E treatment,decreased total ROS in control cells but was unable to do so in mutant cells
same,lipid peroxidation,[2]; 4HNE plus vitamin E treatment,significantly decreased lipid peroxidation in both populations
